Experimental data: PubChem BioAssay (NCI)
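A five-concentration, 48-hour dose response in 96-well plates underlies each endpoint, interpolated linearly between surrounding concentrations. GI50: concentration for 50% inhibition of growth. Definition used: TGI = concentration required for complete inhibition of growth.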

Columns and labels:
Assay in all cases: NCI anticancer screen, dose series, 48 h
786-0 renal = system: 786-0 renal
HS 578T breast = system: HS 578T breast
K-562 leukemia = system: K-562 leukemia
MALME-3M melanoma = system: MALME-3M melanoma
NCI-H226 lung = system: NCI-H226 lung
OVCAR-8 ovarian = system: OVCAR-8 ovarian
RPMI-8226 leukemia = system: RPMI-8226 leukemia
SW-620 colon = system: SW-620 colon
UACC-257 melanoma = system: UACC-257 melanoma
NCI-H522 lung = system: NCI-H522 lung

SMILES	GI50 (786-0 renal) [µM]	TGI (786-0 renal) [µM]	GI50 (HS 578T breast) [µM]	TGI (HS 578T breast) [µM]	GI50 (K-562 leukemia) [µM]	TGI (K-562 leukemia) [µM]	GI50 (MALME-3M melanoma) [µM]	TGI (MALME-3M melanoma) [µM]	GI50 (NCI-H226 lung) [µM]	TGI (NCI-H226 lung) [µM]	GI50 (OVCAR-8 ovarian) [µM]	TGI (OVCAR-8 ovarian) [µM]	GI50 (RPMI-8226 leukemia) [µM]	TGI (RPMI-8226 leukemia) [µM]	GI50 (SW-620 colon) [µM]	TGI (SW-620 colon) [µM]	GI50 (UACC-257 melanoma) [µM]	TGI (UACC-257 melanoma) [µM]	TGI (NCI-H522 lung) [µM]
CCC1(NC(=O)c2cc(F)c(F)c(F)c2F)C(=O)NC(=O)N(C(C)C)C1=O (stereo not drawn)	> 100	> 100	12	37.2	3.54	19.3	24.9	76.3	19.1	46.4	34.6	> 100	> 100	> 100	20.1	50.7	32.1	> 100	
Fc1ccc2c(c1)C1=C(CO2)C(c2ccc(Cl)cc2)NC(=S)N1 (stereo not drawn)	21.3	46			30.4	> 100					42.6	> 100	11.1	34.5	27.3	93.8	29.4	95.3	
COc1nc2c(nc(N)n2C2OCC(O)C(O)C2O)c(=O)n1C (stereo not drawn)		> 100				> 100		> 100		> 100		> 100				> 100		> 100	> 100
C=C1CCCC2[C@](C)(CC3=C(O)C(=O)C=C(OC)C3=O)[C@@H](C)CC[C@]12C (stereo partly drawn)		18.3				> 100		9.93				> 100		40.2		53.3		16.4	28.5
O=c1cccccc1[O-].O=c1cccccc1[O-].O=c1cccccc1[O-].[Ce+3]		55.2				> 100		52.4		> 100		73.6		> 100		> 100		96.9	44.1
Cn1ccnc1CCc1ccc(Cl)c(Cl)c1		> 100				> 100		> 100		> 100		> 100		> 100		> 100		> 100	> 100
CCOC(=O)c1ccc(N2C(=O)Cc3ccccc3C2=O)cc1		> 100				> 100		> 100		> 100		> 100		> 100		> 100		> 100	
Cc1ccccc1C(=O)Oc1ccc(OCc2ccccc2)cc1		> 100				> 100		> 100				> 100		> 100		> 100		> 100	
O=[N+]([O-])c1ccc([N+]2=NC(c3ccccc3)=NN(c3ccccc3)C2)cc1		> 100				> 100		> 100		> 100		> 100		> 100		> 100		> 100	> 100
CCOC(=O)C(C)(C)Oc1ccc2c(-c3ccc(Cl)cc3)c(-c3ccc(Cl)cc3)c(=O)oc2c1		> 100				> 100		> 100		> 100		> 100		> 100		> 100		> 100	
CC(=O)OC1CCC2C(=CCC3C2(C)C(=O)CC2(C)C(C4(C)OC(C(C)C)=CC4=O)C(O)CC32C)C1(C)C (stereo not drawn)		> 100				> 100		47.4		> 100		> 100		56.7		> 100			> 100
CC(=O)/C=C1\CC(=O)Nc2ccccc2N1		> 100				> 100		> 100		> 100		> 100		> 100		> 100		> 100	
S=c1sc2cscc2s1		46.5				> 100		30.6		49.5		45.9		> 100		41.1		44.7	36.7
CS/C(c1ccccc1)=[N+](\[O-])Cc1ccccc1		> 100				> 100		> 100		> 100		> 100		55.3				> 100	> 100
O=C(NC1C2CC3CC(C2)CC1C3)/C(Cl)=C1/Sc2ccccc2NC1=O (stereo not drawn)		> 100				> 100		> 100		> 100		> 100				> 100		> 100	> 100
O=C(O)c1ccccc1N=Nc1ccc2oc(=O)c(C(=O)Nc3ccccc3)cc2c1		> 100				> 100		70.3		> 100		> 100		> 100		> 100		59.4	> 100
O=C1C(=O)N(c2nccs2)C(=O)C(=O)C1c1nc2ccccc2s1		> 100						> 100		> 100		> 100		> 100		> 100		> 100	
